Measured values reported in patent publication US10112978B2, “Peptide and use thereof” (OSAKA UNIVERSITY, priority 2014, dated 2018).
Ends that are not written are not given here.

Legend:
THP-1 cells = assay: CD86 and CD54 expression in THP-1 cells (flow cytometry, RFI); format: cell-based, human; conditions: overnight culture, relative fluorescence intensity
Description: THP-1 cells were seeded at a density of 2.0×10^5 cells/mL in 50 mL of RPMI1640 medium containing 10% FBS and 0.05 mM mercaptoethanol in a 75-cm^2 flask, and precultured for 48 hours.
The precultured THP-1 cells were harvested by centrifugation and suspended at 2.0×10^6 cells/mL in RPMI1640 medium containing 10% FBS and 0.05 mM mercaptoethanol, and the cell suspension was added to a 24-well plate at 500 μL/well. Test peptides were separately dissolved in the same medium as above, and 500 μL of each of the solutions was added to separate wells containing the cell suspension.
After overnight culture, the cells were harvested by centrifugation and washed twice with PBS containing 0.1% BSA (FACS buffer). The cells were then dispersed in 600 μL of FACS buffer containing 0.01% human γ-globulin solution (Sigma, G2388), and incubated at 4° C. for 10 minutes for blocking of Fc receptors.
After that, the cell suspension was divided into three 180-μL aliquots in 1.5-mL tubes, the tubes were centrifuged, and the cell pellets were prepared for the reaction with antibodies. To the cell pellets, FITC-labeled antibody solutions separately diluted to appropriate concentrations in FACS buffer were added in a volume of 50 μL, and incubation was performed at 4° C. for 30 minutes. The antibodies used were CD86 antibody (Pharmingen; Cat#555657), CD54 antibody (Dako; Cat# F7143) and isotype control (Mouse IgG) antibody (Dako; Cat#X0927). After the 30-minute incubation, the cells were harvested by centrifugation and washed twice with FACS buffer. The cells harvested by centrifugation were dispersed in 200 μL of FACS buffer containing 0.625 μg/mL propidium iodide, and the expression levels of the cell surface antigens on 1×10^4 viable cells were measured by flow cytometry. Forward and side scatter gating was not used for the analysis, and the relative fluorescence intensity (RFI) was calculated from the measured mean fluorescence intensities (MFI) by the following formula. […]
When the viability of the non-treated control cells (vehicle treatment cells) was 90% or more, the test was considered valid. In the case where the cell viability at a particular sample concentration used in the test was lower than 50%, the data of the CD54 level at the concentration was excluded from the evaluation.

[1] = system: Human hair follicle dermal papilla cells; assay: Production of growth factors (KGF, HGF, VEGF) by hair follicle dermal papilla cells (ELISA); format: cell-based; conditions: 5 days
Description: Human hair follicle dermal papilla cells in DMEM medium containing 10% FBS were seeded at 3×10^4 cells/well on a 24-well plate and cultured in a CO2 incubator overnight. On the following day, the medium was removed, test peptide solutions in DMEM medium containing 1% FBS were added to the plate, and the cells were cultured in a CO2 incubator for 5 days. The culture supernatant was harvested, and the KGF, HGF and VEGF concentrations in the culture supernatant were measured by ELISA.
In this experiment, OSK-1 and AAP-11 were used as the test peptides, and the concentrations of KGF, HGF and VEGF were measured in the same manner as in Example 9.

Substance | expression of CD54 (THP-1 cells) | expression of CD86 (THP-1 cells) | production of the growth factors (KGF, HGF and VEGF concentrations in the culture supernatant) [1]
ELKLIFLHRLKRLR [AAP-3, C-terminal KRLKRK of OSK-1 deleted] | considerably less active | considerably less active | less effective than OSK-1
ELKLIFLHRLKRLRKR [AAP-2, C-terminal LKRK of OSK-1 deleted] | considerably less active | considerably less active | less effective than OSK-1
FLHRLKRLRKRL [AAP-11] | no considerable reduction in the activity was observed | no considerable reduction in the activity was observed | promoted the production of the indicated growth factors in a concentration dependent manner
HRLKRLRKRLKRK [AAP-12, seven N-terminal amino acids of OSK-1 deleted] | considerably less active than OSK-1 | considerably less active than OSK-1 | 
LIFLHRLKRLRKRL [AAP-6] | no considerable reduction in the activity was observed | no considerable reduction in the activity was observed | 
LKLIFLHRLKRMRKRLdKRK (LKLIFLHRLKRMRKRLKRK; not fully specified (residues 16, 17)) [SR-08, reference compound] | OSK-1 was more highly active for inducing CD54 expression than SR-07 and SR-08 |  | 
MLKLIFLHRLKRMRKRLdKRK (MLKLIFLHRLKRMRKRLKRK; not fully specified (residues 17, 18)) [SR-07, reference compound] | OSK-1 was more highly active for inducing CD54 expression than SR-07 and SR-08 |  | 
